Test results taken from ChEMBL document CHEMBL3853265 (Medchemcomm, 2016).

Key:
[1] = target: T1, Solute carrier family 22 member 12 (Homo sapiens, UniProt Q96S37); experiment: Inhibition of human C-terminal eGFP-tagged URAT1 long isoform expressed in CHO cells assessed as decrease in [14C]-uric acid uptake preincubated for 15 mins followed by [14C]-uric acid addition and incubated in dark for 3 hrs by scintillation counting method; type: cell-based
T1 sequence (Q96S37 whole entry): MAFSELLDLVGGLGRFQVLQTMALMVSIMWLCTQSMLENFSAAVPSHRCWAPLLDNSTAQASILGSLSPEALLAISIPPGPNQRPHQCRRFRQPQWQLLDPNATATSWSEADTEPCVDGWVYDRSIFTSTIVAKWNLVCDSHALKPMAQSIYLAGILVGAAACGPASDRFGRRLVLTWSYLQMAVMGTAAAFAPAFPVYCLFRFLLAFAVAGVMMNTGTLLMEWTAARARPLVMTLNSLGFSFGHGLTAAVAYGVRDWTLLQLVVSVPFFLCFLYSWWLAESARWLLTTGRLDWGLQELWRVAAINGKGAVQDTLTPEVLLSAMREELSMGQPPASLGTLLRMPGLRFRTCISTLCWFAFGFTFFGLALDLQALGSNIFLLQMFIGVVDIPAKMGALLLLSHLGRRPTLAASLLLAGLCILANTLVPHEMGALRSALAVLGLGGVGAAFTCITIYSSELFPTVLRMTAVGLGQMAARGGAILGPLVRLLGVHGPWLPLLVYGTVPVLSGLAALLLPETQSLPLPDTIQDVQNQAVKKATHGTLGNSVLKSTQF

[2] = target: CYP2C9 (Homo sapiens, UniProt P11712); experiment: Inhibition of CYP2C9 (unknown origin) at 3 uM relative to control; type: ADME
[3] = Dissociation constant, pKa of the compound; type: physicochemical
[4] = Intrinsic clearance in human liver microsomes; type: ADME; settings: read-out: CLH
[5] = Octanol-water partition co-efficient, log D of the compound by shake flask method; type: physicochemical

Sequence of CYP2C9 (P11712 whole entry): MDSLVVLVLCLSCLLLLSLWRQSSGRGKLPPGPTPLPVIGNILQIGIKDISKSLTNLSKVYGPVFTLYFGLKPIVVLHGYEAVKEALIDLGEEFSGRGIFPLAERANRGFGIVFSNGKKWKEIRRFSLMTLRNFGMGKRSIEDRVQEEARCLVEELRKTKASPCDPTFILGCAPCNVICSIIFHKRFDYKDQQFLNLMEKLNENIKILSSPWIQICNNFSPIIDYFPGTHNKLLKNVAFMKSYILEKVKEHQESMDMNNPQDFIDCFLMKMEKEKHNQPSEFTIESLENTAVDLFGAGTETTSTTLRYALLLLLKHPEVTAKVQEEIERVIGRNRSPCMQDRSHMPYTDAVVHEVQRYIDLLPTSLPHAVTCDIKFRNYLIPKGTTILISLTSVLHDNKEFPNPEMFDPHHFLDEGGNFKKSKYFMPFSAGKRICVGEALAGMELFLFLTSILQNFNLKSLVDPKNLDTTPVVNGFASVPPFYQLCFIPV

Structure (SMILES) | IC50 [1] | inhibition at 3 µM [2] | pKa [3] | microsomal CLint [4] | logD [5]
N#Cc1cc(Cl)ccc1NS(=O)(=O)c1ccccc1C(F)(F)F | 111 nM |  |  |  | 
COc1ncccc1NS(=O)(=O)c1ccccc1C(F)(F)F | 3920 nM |  |  |  | 
N#Cc1cc(NS(=O)(=O)c2ccccc2C(F)(F)F)ccc1Cl | 18 nM | 76% | 5.8 | < 12 µL/min/mg | 2.3
Cc1ccc(NS(=O)(=O)c2ccccc2C(F)(F)F)cn1 | 1030 nM |  |  |  | 
O=S(=O)(Nc1ccc(F)c(C(F)(F)F)c1)c1ccccc1C(F)(F)F | 484 nM |  |  |  | 
Cc1ccccc1S(=O)(=O)Nc1ccc(Cl)c(C#N)c1 | 183 nM |  |  |  | 
N#Cc1cccc(NS(=O)(=O)c2ccccc2C(F)(F)F)c1 | 166 nM | 28% |  | < 8 µL/min/mg | 1.9
COc1cncc(NS(=O)(=O)c2ccccc2C(F)(F)F)c1 | 89 nM | 18% |  | < 8 µL/min/mg | 1.3
O=S(=O)(Nc1ccccc1F)c1ccccc1C(F)(F)F | 3610 nM | 15% |  |  | 2.4
N#Cc1cc(NS(=O)(=O)c2ccccc2C#N)ccc1Cl | 127 nM |  |  |  | 
Cc1cncc(NS(=O)(=O)c2ccccc2C(F)(F)F)c1 | 185 nM |  |  |  | 
N#Cc1ccccc1NS(=O)(=O)c1ccccc1C(F)(F)F | 616 nM | 11% |  | 19 µL/min/mg | 0.8
N#Cc1cc(NS(=O)(=O)c2ccccc2OC(F)(F)F)ccc1Cl | 20 nM |  |  |  | 
Cc1ccccc1S(=O)(=O)Nc1ccc(C#N)c(Cl)c1 | 89 nM |  |  |  | 
O=S(=O)(Nc1ccc(F)c(F)c1)c1ccccc1C(F)(F)F | 1970 nM |  |  |  | 
N#Cc1ccc(NS(=O)(=O)c2ccccc2C(F)(F)F)cc1Cl | 18 nM | 92% | 5.1 | 11 µL/min/mg | 1.8
COc1ccncc1NS(=O)(=O)c1ccccc1C(F)(F)F | > 10000 nM |  |  |  | 

Structure (SMILES) | IC50 [1] | inhibition at 3 µM [2] | pKa [3] | microsomal CLint [4] | logD [5]
N#Cc1c(Cl)cccc1NS(=O)(=O)c1ccccc1C(F)(F)F | 23 nM | 86% |  | 30 µL/min/mg | 1
N#Cc1ccc(NS(=O)(=O)c2ccccc2C(F)(F)F)cc1C(F)(F)F | 29 nM | 61% |  | < 12 µL/min/mg | 1.8
N#Cc1ccc(Cl)cc1NS(=O)(=O)c1ccccc1C(F)(F)F | 187 nM |  |  |  | 
N#Cc1cc(NS(=O)(=O)c2ccccc2C(F)(F)F)ccc1C(F)(F)F | 32 nM | 86% | 5.1 | 18 µL/min/mg | 2
N#Cc1ccc(Cl)c(NS(=O)(=O)c2ccccc2C(F)(F)F)c1 | 71 nM |  |  |  | 
N#Cc1cc(NS(=O)(=O)c2ccccc2Cl)ccc1Cl | 81 nM |  |  |  | 
O=S(=O)(Nc1ccccc1OC(F)F)c1ccccc1C(F)(F)F | 1970 nM |  |  |  | 
COc1ccccc1S(=O)(=O)Nc1ccc(C#N)c(Cl)c1 | 199 nM |  |  |  | 
N#Cc1ccc(NS(=O)(=O)c2ccccc2C(F)(F)F)c(Cl)c1 | 39 nM | 82% |  | 14 µL/min/mg | 1.1
N#Cc1ccc(NS(=O)(=O)c2ccccc2Cl)cc1Cl | 81 nM |  |  |  | 
Cc1ccncc1NS(=O)(=O)c1ccccc1C(F)(F)F | > 10000 nM |  |  |  | 
N#Cc1ccc(NS(=O)(=O)c2ccccc2C(F)(F)F)cc1 | 119 nM |  |  |  | 
O=S(=O)(Nc1cccc(OC(F)(F)F)c1)c1ccccc1C(F)(F)F | 1480 nM | 81% |  | 55 µL/min/mg | 3.9
O=S(=O)(Nc1cncc(Br)c1)c1ccccc1C(F)(F)F | 35 nM | 38% | 5.3 | 14 µL/min/mg | 1.6
O=S(=O)(Nc1cnc2ccccc2c1)c1ccccc1C(F)(F)F | 7 nM | 39% |  | 153 µL/min/mg | 2.5
COc1ccc(NS(=O)(=O)c2ccccc2C(F)(F)F)cn1 | 1170 nM |  |  |  | 
N#Cc1ccc(NS(=O)(=O)c2ccccc2C#N)cc1Cl | 156 nM |  |  |  | 
